Test results: US20180201592A1, “2-AMINO-1,3,4-THIADIAZINE AND 2-AMINO-1,3,4-OXADIAZINE BASED ANTIFUNGAL AGENTS” (F2G Limited, priority 2015, published 2018)

Experiments:
Conditions in all cases: banded MIC grade
A. terreus 49 = experiment: Minimum inhibitory concentration, YAG medium; assay type: cell-based, Aspergillus terreus
Protocol: (§1) The compound was dissolved in DMSO to give a solution containing 5 mg/mL. Tubes were stored at −20° C. until required. On the day of testing thawed solutions were vortex mixed to ensure homogeneity. 30 μL of solution was removed and added to 570 μL of sterile water in a separate sterile Eppendorf. The thoroughly mixed solution was used to prepare a series of doubling dilutions in water, in a deep well plate. Thirteen replicate plates were prepared using a Minitrak by aspirating 20 μL from each well into eleven clear polystyrene 96 well plates. Spores of Aspergillus spp. […] All plates were incubated for 24 hrs at 35° C. Growth was assessed by monitoring the optical density at 485 nm for each well. […] MICs are recorded as mg/L.

C. tropicalis = experiment: Minimum inhibitory concentration, RPMI medium; assay type: cell-based
Protocol: as §1, with “Assays were also performed in RPMI medium (Roswell Park Memorial Media 1640). To perform MIC tests in this medium, dilutions” for “Spores”, “compounds are prepared in microtitre plates as described above.” for “Aspergillus spp.”, “24-48” for “24”, “The following organisms were tested: […]” for “MICs are recorded as mg/L.”

C. albicans = experiment: Minimum inhibitory concentration, RPMI medium; assay type: cell-based
Protocol: as §1, with “Assays were also performed in RPMI medium (Roswell Park Memorial Media 1640). To perform MIC tests in this medium, dilutions” for “Spores”, “compounds are prepared in microtitre plates as described above.” for “Aspergillus spp.”, “24-48” for “24”, “The following organisms were tested: […]” for “MICs are recorded as mg/L.”

C. parapsilosis = experiment: Minimum inhibitory concentration, RPMI medium; assay type: cell-based
Protocol: as §1, with “Assays were also performed in RPMI medium (Roswell Park Memorial Media 1640). To perform MIC tests in this medium, dilutions” for “Spores”, “compounds are prepared in microtitre plates as described above.” for “Aspergillus spp.”, “24-48” for “24”, “The following organisms were tested: […]” for “MICs are recorded as mg/L.”

Aspergillus niger = experiment: Minimum inhibitory concentration, YAG medium; assay type: cell-based
Protocol: as §1

Aspergillus flavus = experiment: Minimum inhibitory concentration, YAG medium; assay type: cell-based
Protocol: as §1

Aspergillus terreus = experiment: Minimum inhibitory concentration, YAG medium; assay type: cell-based
Protocol: as §1

Aspergillus fumigatus = experiment: Minimum inhibitory concentration, YAG medium; assay type: cell-based
Protocol: (§2) Between 1 and 5 mgs of compound were accurately weighed out into a sterile Eppendorf tube. The compound was dissolved in DMSO to give a solution containing 5 mg/mL. Tubes were stored at −20° C. until required.
(§3) On the day of testing thawed solutions were vortex mixed to ensure homogeneity. 30 μL of solution was removed and added to 570 μL of sterile water in a separate sterile Eppendorf. The thoroughly mixed solution was used to prepare a series of doubling dilutions in water, in a deep well plate. Thirteen replicate plates were prepared using a Minitrak by aspirating 20 μL from each well into eleven clear polystyrene 96 well plates.
(§4) Spores of Aspergillus spp. (Aspergillus fumigatus [two strains], Aspergillus terreus [two strains], Aspergillus niger and Aspergillus flavus) were harvested from cultures grown on Sabarauds agar for 5 days, and resuspended in PBS/Tween 80 to approx 1×10^7 cfu/mL. Each organism suspension was diluted in YAG medium (1% glucose, 1% ammonium chloride and 0.5% yeast extract) to 0.5-2×10^4cfu/mL. 80 μL of an organism suspension was added to each well of the plate containing drug dilutions.
(§5) This typically produced MIC plates with a drug range 50-0.05 mg/L and organism inocula of 1-2×10^4 cfu/mL for Aspergillus spp. All plates were incubated for 24 hrs at 35° C. Growth was assessed by monitoring the optical density at 485 nm for each well. The MIC of a compound is the lowest drug concentration that inhibits growth of an organism by >70% compared with a drug free control. MICs are recorded as mg/L. In cases where the MIC of an organism is […] the MIC is repeated using a concentration range of 0.5-0.0005 mg/L.

A. fumigatus 210 = experiment: Minimum inhibitory concentration, YAG medium; assay type: cell-based, Aspergillus fumigatus
Protocol: as §2, §3, §4, §5

Row | Structure (SMILES) | MIC grade, A. TERREUS 49, YAG media (A. terreus 49) | MIC grade, C. TROPICALIS, RPMI media (C. tropicalis) | MIC grade, C. ALBICANS, RPMI media (C. albicans) | MIC grade, C. PARAPSILOSIS, RPMI media (C. parapsilosis) | MIC grade, A. NIGER, YAG media (Aspergillus niger) | MIC grade, A. FLAVUS, YAG media (Aspergillus flavus) | MIC grade, A. TERREUS, YAG media (Aspergillus terreus) | MIC grade, A. FUMIGATUS, YAG media (Aspergillus fumigatus) | MIC grade, A. FUMIGATUS 210, YAG media (A. fumigatus 210)
1 | NC1=NN=C(CCOc2ccc(-c3ccccc3)cc2)CS1 | 2 (2: 1-5 mg/L) | 1 (1: ≥20 mg/L) | 1 (1: ≥20 mg/L) | 1 (1: ≥20 mg/L) | 2 (2: 1-5 mg/L) | 2 (2: 1-5 mg/L) | 2 (2: 1-5 mg/L) | 1 (1: ≥5 mg/L) | 1 (1: ≥5 mg/L)
2 | COCCCCCCC1=NN=C(N)SC1 | 4 (4: <0.2 mg/L) | 3 (3: 1-5 mg/L) | 4 (4: <1 mg/L) | 4 (4: <1 mg/L) | 4 (4: <0.2 mg/L) | 4 (4: <0.2 mg/L) | 4 (4: <0.2 mg/L) | 4 (4: <0.2 mg/L) | 4 (4: <0.2 mg/L)
3 | COCCC1=NN=C(N)SC1 | 3 (3: 0.2-1 mg/L) | 1 (1: ≥20 mg/L) | 1 (1: ≥20 mg/L) | 2 (2: 5-20 mg/L) | 3 (3: 0.2-1 mg/L) | 3 (3: 0.2-1 mg/L) | 3 (3: 0.2-1 mg/L) | 3 (3: 0.2-1 mg/L) | 2 (2: 1-5 mg/L)
4 | NC1=NNC(c2cccc3ccccc23)=CS1 | 1 (1: ≥5 mg/L) | 1 (1: ≥20 mg/L) | 1 (1: ≥20 mg/L) | 2 (2: 5-20 mg/L) | 1 (1: ≥5 mg/L) | 1 (1: ≥5 mg/L) | 1 (1: ≥5 mg/L) | 1 (1: ≥5 mg/L) | 1 (1: ≥5 mg/L)
5 | CCCOc1ccc(CCC2=NN=C(N)SC2)cc1 | 4 (4: <0.2 mg/L) | 3 (3: 1-5 mg/L) | 4 (4: <1 mg/L) | 4 (4: <1 mg/L) | 4 (4: <0.2 mg/L) | 3 (3: 0.2-1 mg/L) | 4 (4: <0.2 mg/L) | 4 (4: <0.2 mg/L) | 4 (4: <0.2 mg/L)
6 | CCCCCOc1ccc(CCC2=NN=C(N)SC2)cc1 | 3 (3: 0.2-1 mg/L) | 3 (3: 1-5 mg/L) | 1 (1: ≥20 mg/L) | 3 (3: 1-5 mg/L) | 3 (3: 0.2-1 mg/L) | 3 (3: 0.2-1 mg/L) | 2 (2: 1-5 mg/L) | 1 (1: ≥5 mg/L) | 1 (1: ≥5 mg/L)
7 | NC1=NN=C(CCCCCOc2ccc(F)cc2)CS1 | 4 (4: <0.2 mg/L) | 4 (4: <1 mg/L) | 4 (4: <1 mg/L) | 4 (4: <1 mg/L) | 4 (4: <0.2 mg/L) | 4 (4: <0.2 mg/L) | 4 (4: <0.2 mg/L) | 4 (4: <0.2 mg/L) | 4 (4: <0.2 mg/L)
8 | COCCCCCC1=CSC(=N)NN1C | 4 (4: <0.2 mg/L) | 3 (3: 1-5 mg/L) | 4 (4: <1 mg/L) | 4 (4: <1 mg/L) | 3 (3: 0.2-1 mg/L) | 4 (4: <0.2 mg/L) | 3 (3: 0.2-1 mg/L) | 3 (3: 0.2-1 mg/L) | 4 (4: <0.2 mg/L)
9 | CCOC(=O)c1ccc(C2=CSC(N)=NN2)cc1 | 3 (3: 0.2-1 mg/L) | 2 (2: 5-20 mg/L) | 3 (3: 1-5 mg/L) | 4 (4: <1 mg/L) | 4 (4: <0.2 mg/L) | 4 (4: <0.2 mg/L) | 4 (4: <0.2 mg/L) | 4 (4: <0.2 mg/L) | 4 (4: <0.2 mg/L)
10 | NC1=NNC2=C(CCCC2)S1 | 2 (2: 1-5 mg/L) | 1 (1: ≥20 mg/L) | 1 (1: ≥20 mg/L) | 1 (1: ≥20 mg/L) | 2 (2: 1-5 mg/L) | 1 (1: ≥5 mg/L) | 2 (2: 1-5 mg/L) | 2 (2: 1-5 mg/L) | 3 (3: 0.2-1 mg/L)
11 | CCCCOC(=O)CC1=NN=C(N)SC1 | 3 (3: 0.2-1 mg/L) | 1 (1: ≥20 mg/L) | 1 (1: ≥20 mg/L) | 3 (3: 1-5 mg/L) | 3 (3: 0.2-1 mg/L) | 2 (2: 1-5 mg/L) | 2 (2: 1-5 mg/L) | 2 (2: 1-5 mg/L) | 3 (3: 0.2-1 mg/L)
12 | NC1=NN=C(c2ccc(Cl)cc2)CS1 | 3 (3: 0.2-1 mg/L) | 1 (1: ≥20 mg/L) | 1 (1: ≥20 mg/L) | 1 (1: ≥20 mg/L) | 2 (2: 1-5 mg/L) | 3 (3: 0.2-1 mg/L) | 3 (3: 0.2-1 mg/L) | 3 (3: 0.2-1 mg/L) | 2 (2: 1-5 mg/L)
13 | CCCCCCCC1=CSC(N)=NN1 [5-heptyl-4~{H}-1,3,4-thiadiazin-2-amine] | 3 (3: 0.2-1 mg/L) | 3 (3: 1-5 mg/L) | 3 (3: 1-5 mg/L) | 3 (3: 1-5 mg/L) | 4 (4: <0.2 mg/L) | 4 (4: <0.2 mg/L) | 4 (4: <0.2 mg/L) | 4 (4: <0.2 mg/L) | 4 (4: <0.2 mg/L)
14 | CCCCOCCC1=NN=C(N)SC1 | 4 (4: <0.2 mg/L) | 2 (2: 5-20 mg/L) | 1 (1: ≥20 mg/L) | 4 (4: <1 mg/L) | 4 (4: <0.2 mg/L) | 3 (3: 0.2-1 mg/L) | 4 (4: <0.2 mg/L) | 4 (4: <0.2 mg/L) | 4 (4: <0.2 mg/L)
15 | NC1=NN=C(CCOc2ccc(Br)cc2)CS1 | 1 (1: ≥5 mg/L) | 2 (2: 5-20 mg/L) | 1 (1: ≥20 mg/L) | 3 (3: 1-5 mg/L) | 4 (4: <0.2 mg/L) | 4 (4: <0.2 mg/L) | 3 (3: 0.2-1 mg/L) | 4 (4: <0.2 mg/L) | 4 (4: <0.2 mg/L)
